The structures appear in SMILES notation. Read-outs that look alike come from different tables or passages of the source.

The conditions of the data set: 1 mg per mL liver microsome protein, 1 μM compound, 37° C., compared to the non-isotopically enriched drug. Background: Liver microsomes are vesicles of endoplasmic reticulum, rich in cytochrome P450 enzymes.

Method: Liver microsomal stability assays were conducted at 1 mg per mL liver microsome protein with an NADPH-generating system in 2% NaHCO3 (2.2 mM NADPH, 25.6 mM glucose 6-phosphate, 6 units per mL glucose 6-phosphate dehydrogenase and 3.3 mM MgCl2). Test compounds were prepared as solutions in 20% acetonitrile-water and added to the assay mixture (final assay concentration 1 μM) and incubated at 37° C. Final concentration of acetonitrile in the assay should be <1%. Aliquots (50 μL) were taken out at times 0, 15, 30, 45, and 60 min, and diluted with ice cold acetonitrile (200 μL) to stop the reactions. Samples were centrifuged at 12,000 RPM for 10 min to precipitate proteins. Supernatants were transferred to micro centrifuge tubes and stored for LC/MS/MS analysis of the degradation half-life of the test compounds.

Take `[2H]C1([2H])CCNP(=O)(N(C([2H])([2H])C([2H])([2H])Cl)C([2H])([2H])C([2H])([2H])Cl)O1` (stereo not shown) [Example 3, d8-Bis-(2-chloro-ethyl)-(d2-2-oxo-2λ^5-[1,3,2]oxazaphosphinan-2yl)amine]: the “% increase of HLM degradation half-life” value (50%-150%) is “+ (50%-150%)”.
Consider `[2H]C1([2H])CCOP(=O)(N(C([2H])([2H])C([2H])([2H])Cl)C([2H])([2H])C([2H])([2H])Cl)N1` (stereo not shown) [Example 5, d8-Bis-(2-chloro-ethyl)-(2-oxo-2λ^5-[1,3,2]oxazaphosphinan-2yl)-d2-amine], for which the “% increase of HLM degradation half-life” value (0%-50%) is reported as “+ (0%-50%)”.
In the case of `[2H]C([2H])(Cl)C([2H])([2H])N(C([2H])([2H])C([2H])([2H])Cl)P1(=O)NCCCO1` (stereo not shown) [Example 1, d8-Bis-(2-chloro-ethyl)-(2-oxo-2λ^5-[1,3,2]oxazaphosphinan-2yl)-amine], where the note is “column −25%-0%”, the “% increase of HLM degradation half-life” value is “+ (−25%-0%)”.
For the compound `[2H]C1([2H])CCNP(=O)(N(CCCl)CCCl)O1` (stereo not shown) [Example 2, Bis-(2-chloro-ethyl)-(d2-2-oxo-2λ^5-[1,3,2]oxazaphosphinan-2yl)-amine], the “% increase of HLM degradation half-life” value (50%-150%) is reported as “+ (50%-150%)”.
